# Source: US9744164B2, “Neuroprotective polyphenol analogs” (Salk Institute for Biological Studies, priority 2011, dated 2017)
# How the values were obtained:
# HT22 cells = assay: in vitro ischemia assay (HT22 cell IAA assay); format: cell-based, mouse; details: for improvement of neuroprotective activity/potency over Fisetin: relative to Fisetin, in vitro ischemia; for increase in survival: 20 μM IAA, over the neuroprotective concentration range
# Experimental: For these studies, cultured HT22 mouse hippocampal cells were used as an in vitro stroke assay. HT22 cells were treated with iodoacetic acid (IAA), an irreversible inhibitor of glyceraldehyde 3-phosphate dehydrogenase (G3PDH) for 2 hr alone or in the presence of varying concentrations of Fisetin. G3PDH is an enzyme of the glycolysis pathway, which catalyzes the synthesis of 1,3-bisphosphoglycerate, a “high energy” intermediate used for the synthesis of ATP. Cell survival was measured using a standard colorimetric MTT (3-(4,5-dimethylthiazol-2-yl)-2,5-diphenyltetrazolium bromide) assay for cell survival MTT is a pale yellow substrate that is cleaved by living cells to yield a dark blue formazan product.
# Cytotoxicity assay. Cell viability was determined by a modified version of 3-(4,5-dimethylthiazol-2-yl)-2,5-diphenyl tetrazolium bromide (MTT) assay based on the standard procedure (Maher, et al., Brain Research. (2007), supra). Cells were seeded onto 96-well microtiter plates at a density of 5×10^3 cells per well. For the in vitro ischemia assay, the next day, the medium was replaced with DMEM supplemented with 7.5% DFCS and the cells were treated with 20 μM iodoacetic acid (IAA) alone or in the presence of the different derivatives. After 2 hr the medium in each well was aspirated and replaced with fresh medium without IAA but containing the derivatives. 20 hr later, the medium in each well was aspirated and replaced with fresh medium containing 2.5 μg/ml MTT. After 4 hr of incubation at 37° C., the cells were solubilized with 100 μl of a solution containing 50% dimethylformamide and 20% SDS (pH 4.7). The absorbance at 570 nm was measured on the following day with a microplate reader (Molecular Devices). Results were confirmed by visual inspection of the wells. Controls included compound alone to test for toxicity and compound with no cells to test for interference with the assay chemistry.
# For a primary screen, an in vitro ischemia model in combination with the HT22 nerve cell line (Maher, et al., Brain Research. (2007) 1173, 117-125) was chosen. […] To induce ischemia in the HT22 cells we used iodoacetic acid (IAA), a well-known, irreversible inhibitor of the glycolytic enzyme glyceraldehyde 3-phosphate dehydrogenase (G3PDH) (Winkler, et al., Exp. Eye Res. (2003) 76, 715-723). IAA has been used in a number of other studies to induce ischemia in nerve cells (Reshef, et al., Neurosci. Lett. (1997) 238, 37-40; Sperling, et al., Neursci. Lett. (2003) 351, 137-140; Rego, et al., Neurochem. Res. (1999) 24, 351-358; Sigalov, et al,. J. Mol. Neurosci. (2000) 15, 147-154; and Reiner, et al., Neurosci. Lett. (1990) 119, 175-178), including several recent screens for neuroprotective molecules (Biraboneye, et al., J. Med. Chem. (2009) 52 (14), 4358-4369; Biraboneye, et al., Chem. Med. Chem. (2010) 5 (1), 79-85). The changes following IAA treatment of neural cells are very similar to those seen in animal models of ischemic stroke (Lipton, et al., Physiol. Rev. (1999) 79, 1431-1568) and include alterations in membrane potential (Reiner, et al., Neurosci. Lett. (1990) 119, 175-178), breakdown of phospholipids (Taylor, et al., J. Pharmacol. Exp. Ther. (1996) 276, 1224-1231), loss of ATP (Winkler, et al., Exp. Eye Res. (2003) 76, 715-723; Sperling, et al., Neursci. Lett. (2003) 351, 137-140) and an increase in reactive oxygen species (ROS) (Taylor, et al., J. Pharmacol. Exp. Ther. (1996), supra; and Sperling, et al., Neursci. Lett. (2003) 351, 137-140).
# The roles of the four different hydroxyl groups in the activity of Fisetin were studied. […] Cell viability was determined after 24 hr by the MTT assay. The ability to maintain GSH (GSH) was determined by treating HT22 cells with different doses of each derivative (1-10 μM) in the presence of 5 mM glutamate. After 24 hr cell extracts were prepared and analyzed for total GSH. Fisetin (10 μM) was used as a positive control. […]
# Nrf2 = Nrf2 induction, SDS-PAGE and Western blotting of nuclear extracts; format: cell-based; details: cells treated 1, 2 and 4 hr at most protective concentration
# Experimental: SDS-PAGE and immunoblotting. For immunoblotting of Nrf2, nuclear extracts were prepared as described (Schreiber, et al., Nucleic Acids Res. (1989) 17 (15), 6419) from untreated cells and cells treated with the Fisetin derivatives for 1, 2 and 4 hr. Fisetin was used as a positive control. […] Protein concentrations were determined using the BCA protein assay (Pierce). Equal amounts of protein were solubilized in 2.5× SDS-sample buffer, separated on 10% SDS-polyacrylamide gels and transferred to nitrocellulose. Equal loading and transfer of the samples was confirmed by staining the nitrocellulose with Ponceau-S. Transfers were blocked for 1 hr at room temperature with 5% nonfat milk in TBS/0.1% Tween 20 and then incubated overnight at 4° C. in the primary antibody diluted in 5% BSA in TBS/0.05% Tween 20. The primary antibodies used were: anti-Nrf2 (#SC13032; 1/1000) from Santa Cruz Biotechnology (Santa Cruz, Calif.) and anti-β-actin (#5125; 1/20,000) from Cell Signaling (Beverly, Mass.). The transfers were rinsed with TB S/0.05% Tween 20 and incubated for 1 hr at room temperature in horseradish peroxidase-goat anti-rabbit or goat anti-mouse (Biorad, Hercules, Calif.) diluted 1/5000 in 5% nonfat milk in TBS/0.1% Tween 20. The immunoblots were developed with the Super Signal reagent (Pierce, Rockford, Ill.).
# The transcription factor Nrf2 plays a key role in regulating GSH metabolism in many different cell types (Lewerenz, et al., Antioxidant & Redox Signaling. (2011) 14, 1449-1465). We have shown that Fisetin can induce Nrf2 and this correlates with its ability to enhance GSH levels (Maher, P. et al., Genes. Nutr. (2009) Sep. 10). To determine if the derivatives which can maintain GSH levels do so by increasing Nrf2 we looked at Nrf2 levels in the nuclei of derivative-treated cells using Fisetin as a positive control (Table 4). […] This was particularly true for the derivatives based on the quinoline scaffold where none of them increased Nrf2 despite being very effective at maintaining GSH levels.
# The ability of the derivatives that maintain GSH levels to induce the transcription factor Nrf2 was assayed by SDS-PAGE and Western blotting of nuclear extracts of untreated and derivative-treated cells. Fisetin treatment was used as a positive control.
SMILES,improvement of neuroprotective activity relative to CMS-007 (HT22 cells),Nrf2 (induction of transcription factor Nrf2) (Nrf2),improvement of neuroprotective activity/potency over Fisetin (HT22 cells),increase in survival (HT22 cells; HT22 cells),"EC50 in vitro ischemia (HT22 cells; HT22 cells, 20 μM IAA 2 hr, viability by MTT after 24 hr, 'no' = no protection)"
"CC(C)Oc1cc(-c2ccc(O)c(O)c2)nc2ccccc12 [CMS-024, 4-isopropoxy-2-(3,4-dihydroxyphenyl)quinoline]",~2 fold,No,–,–,–
"Oc1ccc(-c2cc(OC3CCCC3)c3ccccc3n2)cc1O [CMS-121, 4-cyclopentyloxy-2-(3,4-dihydroxyphenyl)quinoline]",–,No,> 400 fold,–,–
"O=c1cc(-c2ccccc2)oc2cc(O)c(O)c(O)c12 [Baicalein, 5,6,7-trihydroxyflavone]",–,–,–,greater than 80%,–
"COc1ccc(/C=C/C(=O)c2cc(C)c(C)cc2O)cc1OCc1ccccc1 [CMS-086, (E)-3-(3-(benzyloxy)-4-methoxyphenyl)-1-(2-hydroxy-4,5-dimethylphenyl)prop-2-en-1-one]",–,Yes,–,–,no
"O=c1c(O)c(-c2ccc(O)c(O)c2)oc2cc(O)ccc12 [Fisetin, 3,7,3′,4′-tetrahydroxy flavone]",–,Yes,–,greater than 85%,–
"O=c1c(O)c(-c2ccc(N3CCCC3)c(O)c2)oc2c1ccc1ccccc12 [CMS-140, 3-hydroxy-2-(3-hydroxy-4-(pyrrolidin-1-yl)phenyl)-4H-benzo[h]chromen-4-one]",–,No,up to 600 fold,–,–
"COc1cc(-c2ccc(O)c(O)c2)nc2ccccc12 [CMS-007, 4-methoxy-2-(3,4-dihydroxyphenyl)quinoline]",–,No,~75 fold,–,–
"O=c1c(O)c(-c2ccc(O)c(O)c2)oc2ccccc12 [CMS-04P, reference compound]",–,Yes,~6 fold,–,–
"CCOc1cc(-c2ccc(O)c(O)c2)nc2ccccc12 [CMS-023, 4-ethoxy-2-(3,4-dihydroxyphenyl)quinoline]",~2 fold,No,~140 fold,–,–
